Laboratory results taken from ChEMBL document CHEMBL3046781, “Resistance of Helicoverpa assulta (Guenée) (Lepidoptera: Noctuidae) to fenvalerate, phoxim and methomyl in China” (2009).

What was measured:
Type in all cases: functional
Helicoverpa assulta [1] = assay: Insecticidal activity against sixth-instar larvae of Helicoverpa assulta FJ2 at 39 to 12630 mg/l after 48 hr by chi-squared analysis
Helicoverpa assulta [2] = assay: Insecticidal activity against sixth-instar larvae of Helicoverpa assulta GZ4 at 39 to 12630 mg/l after 48 hr by chi-squared analysis
Helicoverpa assulta [3] = assay: Insecticidal activity against sixth-instar larvae of Helicoverpa assulta YN5 at 39 to 12630 mg/l after 48 hr by chi-squared analysis
Helicoverpa assulta [4] = assay: Resistance factor, ratio of LD50 for sixth-instar larvae of Helicoverpa assulta HN2 to LD50 for sixth-instar larvae of Helicoverpa assulta at 39 to 12630 mg/l
Helicoverpa assulta [5] = assay: Insecticidal activity against sixth-instar larvae of Helicoverpa assulta HB1 at 39 to 12630 mg/l after 48 hr by chi-squared analysis
Helicoverpa assulta [6] = assay: Resistance factor, ratio of LD50 for sixth-instar larvae of Helicoverpa assulta GZ4 to LD50 for sixth-instar larvae of Helicoverpa assulta at 39 to 12630 mg/l
Helicoverpa assulta [7] = assay: Resistance factor, ratio of LD50 for sixth-instar larvae of Helicoverpa assulta SD1 to LD50 for sixth-instar larvae of Helicoverpa assulta at 39 to 12630 mg/l
Helicoverpa assulta [8] = assay: Insecticidal activity against sixth-instar larvae of Helicoverpa assulta HN1 at 39 to 12630 mg/l after 48 hr by chi-squared analysis
Helicoverpa assulta [9] = assay: Insecticidal activity against sixth-instar larvae of Helicoverpa assulta SD1 at 39 to 12630 mg/l after 48 hr by chi-squared analysis
Helicoverpa assulta [10] = assay: Resistance factor, ratio of LD50 for sixth-instar larvae of Helicoverpa assulta GZ3 to LD50 for sixth-instar larvae of Helicoverpa assulta at 39 to 12630 mg/l
Helicoverpa assulta [11] = assay: Insecticidal activity against sixth-instar larvae of Helicoverpa assulta GZ5 at 39 to 12630 mg/l after 48 hr by chi-squared analysis
Helicoverpa assulta [12] = assay: Resistance factor, ratio of LD50 for sixth-instar larvae of Helicoverpa assulta SD1 to LD50 for sixth-instar larvae of Helicoverpa assulta at 1.8 to 183360 mg/l
Helicoverpa assulta [13] = assay: Insecticidal activity against sixth-instar larvae of Helicoverpa assulta HB2 at 1.8 to 183360 mg/l after 48 hr by chi-squared analysis
Helicoverpa assulta [14] = assay: Insecticidal activity against sixth-instar larvae of Helicoverpa assulta YN1 at 1.8 to 183360 mg/l after 48 hr by chi-squared analysis
Helicoverpa assulta [15] = assay: Resistance factor, ratio of LD50 for sixth-instar larvae of Helicoverpa assulta AH3 to LD50 for sixth-instar larvae of Helicoverpa assulta at 1.8 to 183360 mg/l
Helicoverpa assulta [16] = assay: Insecticidal activity against sixth-instar larvae of Helicoverpa assulta SD2 at 1.8 to 183360 mg/l after 48 hr by chi-squared analysis
Helicoverpa assulta [17] = assay: Insecticidal activity against sixth-instar larvae of Helicoverpa assulta HN1 at 1.8 to 183360 mg/l after 48 hr by chi-squared analysis
Helicoverpa assulta [18] = assay: Resistance factor, ratio of LD50 for sixth-instar larvae of Helicoverpa assulta FJ1 to LD50 for sixth-instar larvae of Helicoverpa assulta at 1.8 to 183360 mg/l
Helicoverpa assulta [19] = assay: Resistance factor, ratio of LD50 for sixth-instar larvae of Helicoverpa assulta YN3 to LD50 for sixth-instar larvae of Helicoverpa assulta at 1.8 to 183360 mg/l
Helicoverpa assulta [20] = assay: Resistance factor, ratio of LD50 for sixth-instar larvae of Helicoverpa assulta AH1 to LD50 for sixth-instar larvae of Helicoverpa assulta at 1.8 to 183360 mg/l
Helicoverpa assulta [21] = assay: Insecticidal activity against sixth-instar larvae of Helicoverpa assulta SD1 at 1.8 to 183360 mg/l after 48 hr by chi-squared analysis
Helicoverpa assulta [22] = assay: Insecticidal activity against sixth-instar larvae of Helicoverpa assulta YN5 at 1.8 to 183360 mg/l after 48 hr by chi-squared analysis
Helicoverpa assulta [23] = assay: Insecticidal activity against sixth-instar larvae of Helicoverpa assulta GZ1 at 1.8 to 183360 mg/l after 48 hr by chi-squared analysis
Helicoverpa assulta [24] = assay: Resistance factor, ratio of LD50 for sixth-instar larvae of Helicoverpa assulta AH2 to LD50 for sixth-instar larvae of Helicoverpa assulta at 1.8 to 183360 mg/l
Helicoverpa assulta [25] = assay: Resistance factor, ratio of LD50 for sixth-instar larvae of Helicoverpa assulta GZ1 to LD50 for sixth-instar larvae of Helicoverpa assulta at 1.8 to 183360 mg/l
Helicoverpa assulta [26] = assay: Insecticidal activity against sixth-instar larvae of Helicoverpa assulta FJ1 at 21 to 3390 mg/l after 48 hr by chi-squared analysis
Helicoverpa assulta [27] = assay: Resistance factor, ratio of LD50 for sixth-instar larvae of Helicoverpa assulta YN1 to LD50 for sixth-instar larvae of Helicoverpa assulta at 21 to 3390 mg/l
Helicoverpa assulta [28] = assay: Insecticidal activity against sixth-instar larvae of Helicoverpa assulta YN2 at 21 to 3390 mg/l after 48 hr by chi-squared analysis
Helicoverpa assulta [29] = assay: Resistance factor, ratio of LD50 for sixth-instar larvae of Helicoverpa assulta HN1 to LD50 for sixth-instar larvae of Helicoverpa assulta at 21 to 3390 mg/l
Helicoverpa assulta [30] = assay: Insecticidal activity against sixth-instar larvae of Helicoverpa assulta HN1 at 21 to 3390 mg/l after 48 hr by chi-squared analysis
Helicoverpa assulta [31] = assay: Resistance factor, ratio of LD50 for sixth-instar larvae of Helicoverpa assulta SD2 to LD50 for sixth-instar larvae of Helicoverpa assulta at 21 to 3390 mg/l
Helicoverpa assulta [32] = assay: Insecticidal activity against sixth-instar larvae of Helicoverpa assulta GZ4 at 21 to 3390 mg/l after 48 hr by chi-squared analysis
Helicoverpa assulta [33] = assay: Resistance factor, ratio of LD50 for sixth-instar larvae of Helicoverpa assulta GZ5 to LD50 for sixth-instar larvae of Helicoverpa assulta at 21 to 3390 mg/l
Helicoverpa assulta [34] = assay: Insecticidal activity against sixth-instar larvae of Helicoverpa assulta YN7 at 21 to 3390 mg/l after 48 hr by chi-squared analysis

**Q.** With CCOP(=S)(OCC)O/N=C(\C#N)c1ccccc1 [PHOXIM] as the compound, how does the LD90 (Helicoverpa assulta [1]) read?
**A.** The LD90 was 86.5 µg/g.

**Q.** And the LD50 (Helicoverpa assulta [1]; Helicoverpa assulta, FJ2, 48 h)?
**A.** Its LD50 is 22 mg/kg.

**Q.** What about the LD90 (Helicoverpa assulta [2]) of the same compound?
**A.** Its LD90 is 51.7 µg/g.

**Q.** And the LD50 (Helicoverpa assulta [2]; Helicoverpa assulta, GZ4, 48 h)?
**A.** The LD50 was 18.4 mg/kg.

**Q.** What about the LD90 (Helicoverpa assulta [3]) of the same compound?
**A.** The LD90 was 83.8 µg/g.

**Q.** What about the LD50 (Helicoverpa assulta [3]; Helicoverpa assulta, YN5, 48 h) of the same compound?
**A.** The LD50 was 25.7 mg/kg.

**Q.** And the Ratio (Helicoverpa assulta [4])?
**A.** The Ratio was 3.51.

**Q.** What about the LD90 (Helicoverpa assulta [5]) of the same compound?
**A.** The LD90 was 18.8 µg/g.

**Q.** What about the LD50 (Helicoverpa assulta [5]; Helicoverpa assulta, HB1, 48 h) of the same compound?
**A.** Its LD50 is 8.16 mg/kg.

**Q.** What about the Ratio (Helicoverpa assulta [6]) of the same compound?
**A.** Its Ratio is 7.89.

**Q.** What about the Ratio (Helicoverpa assulta [7]) of the same compound?
**A.** The Ratio was 5.09.

**Q.** And the LD90 (Helicoverpa assulta [8])?
**A.** The LD90 was 23.1 µg/g.

**Q.** What about the LD50 (Helicoverpa assulta [8]; Helicoverpa assulta, HN1, 48 h) of the same compound?
**A.** Its LD50 is 10.5 mg/kg.

**Q.** And the LD90 (Helicoverpa assulta [9])?
**A.** The LD90 was 26.5 µg/g.

**Q.** What about the LD50 (Helicoverpa assulta [9]; Helicoverpa assulta, SD1, 48 h) of the same compound?
**A.** Its LD50 is 11.9 mg/kg.

**Q.** What about the Ratio (Helicoverpa assulta [10]) of the same compound?
**A.** The Ratio was 8.94.

**Q.** And the LD90 (Helicoverpa assulta [11])?
**A.** The LD90 was 33.7 µg/g.

**Q.** And the LD50 (Helicoverpa assulta [11]; Helicoverpa assulta, GZ5, 48 h)?
**A.** The LD50 was 16.6 mg/kg.

**Q.** Which results are given for CC(C)C(C(=O)OC(C#N)c1cccc(Oc2ccccc2)c1)c1ccc(Cl)cc1 (stereo not drawn) [FENVALERATE]?
**A.** Ratio (Helicoverpa assulta [12]): 9.8; LD90 (Helicoverpa assulta [13]): 18 µg/g; LD50 (Helicoverpa assulta [13]; Helicoverpa assulta, HB2, 48 h): 4.62 mg/kg; LD90 (Helicoverpa assulta [14]): 4059 µg/g; LD50 (Helicoverpa assulta [14]; Helicoverpa assulta, YN1, 48 h): 1360 mg/kg; Ratio (Helicoverpa assulta [15]): 1546; LD90 (Helicoverpa assulta [16]): 27.2 µg/g; LD50 (Helicoverpa assulta [16]; Helicoverpa assulta, SD2, 48 h): 1.94 mg/kg; LD90 (Helicoverpa assulta [17]): 23.1 µg/g; LD50 (Helicoverpa assulta [17]; Helicoverpa assulta, HN1, 48 h): 10.5 mg/kg; Ratio (Helicoverpa assulta [18]): 9.01; Ratio (Helicoverpa assulta [19]): 1403; Ratio (Helicoverpa assulta [20]): 2054; LD90 (Helicoverpa assulta [21]): 14.8 µg/g; LD50 (Helicoverpa assulta [21]; Helicoverpa assulta, SD1, 48 h): 1.59 mg/kg; LD90 (Helicoverpa assulta [22]): 4567 µg/g; LD50 (Helicoverpa assulta [22]; Helicoverpa assulta, YN5, 48 h): 1430 mg/kg; LD90 (Helicoverpa assulta [23]): 1043 µg/g; LD50 (Helicoverpa assulta [23]; Helicoverpa assulta, GZ1, 48 h): 301 mg/kg; Ratio (Helicoverpa assulta [24]): 415; Ratio (Helicoverpa assulta [25]): 1860

**Q.** Which LD90 (Helicoverpa assulta [26]) does the source give for CNC(=O)ON=C(C)SC [METHOMYL] here?
**A.** Its LD90 is 67.8 µg/g.

**Q.** And the LD50 (Helicoverpa assulta [26]; Helicoverpa assulta, FJ1, 48 h)?
**A.** Its LD50 is 21.1 mg/kg.

**Q.** What about the Ratio (Helicoverpa assulta [27]) of the same compound?
**A.** The Ratio was 31.6.

**Q.** And the LD90 (Helicoverpa assulta [28])?
**A.** The LD90 was 84.1 µg/g.

**Q.** What about the LD50 (Helicoverpa assulta [28]; Helicoverpa assulta, YN2, 48 h) of the same compound?
**A.** Its LD50 is 26.6 mg/kg.

**Q.** And the Ratio (Helicoverpa assulta [29])?
**A.** The Ratio was 4.48.

**Q.** What about the LD90 (Helicoverpa assulta [30]) of the same compound?
**A.** Its LD90 is 34 µg/g.

**Q.** And the LD50 (Helicoverpa assulta [30]; Helicoverpa assulta, HN1, 48 h)?
**A.** Its LD50 is 6.48 mg/kg.

**Q.** What about the Ratio (Helicoverpa assulta [31]) of the same compound?
**A.** The Ratio was 6.17.

**Q.** And the LD90 (Helicoverpa assulta [32])?
**A.** The LD90 was 55.5 µg/g.

**Q.** What about the LD50 (Helicoverpa assulta [32]; Helicoverpa assulta, GZ4, 48 h) of the same compound?
**A.** Its LD50 is 16.7 mg/kg.

**Q.** What about the Ratio (Helicoverpa assulta [33]) of the same compound?
**A.** The Ratio was 14.5.

**Q.** And the LD90 (Helicoverpa assulta [34])?
**A.** Its LD90 is 143 µg/g.

**Q.** What about the LD50 (Helicoverpa assulta [34]; Helicoverpa assulta, YN7, 48 h) of the same compound?
**A.** Its LD50 is 39 mg/kg.
